Assay results as given in US12018016B2, “Aryl sulfonyl (hydroxy) piperidines as CCR6 inhibitors” (CHEMOCENTRYX, INC., priority 2021, dated 2024).

What follows are compounds tested against T1, human CCR6 (Homo sapiens, UniProt P51684) (assay: Migration assay (chemotaxis, ChemoTX)). Conditions: hCCR6-transfected Ba/F3 cells in human serum, migration to recombinant human CCL20 10 nM, 37° C. 45 minutes; read-out: Potency (IC50 value in the migration assay).
T1 construct: expressed in transfected cells; host or cells: Ba/F3 cells (mouse pro-B line)
T1 sequence (P51684 1-374): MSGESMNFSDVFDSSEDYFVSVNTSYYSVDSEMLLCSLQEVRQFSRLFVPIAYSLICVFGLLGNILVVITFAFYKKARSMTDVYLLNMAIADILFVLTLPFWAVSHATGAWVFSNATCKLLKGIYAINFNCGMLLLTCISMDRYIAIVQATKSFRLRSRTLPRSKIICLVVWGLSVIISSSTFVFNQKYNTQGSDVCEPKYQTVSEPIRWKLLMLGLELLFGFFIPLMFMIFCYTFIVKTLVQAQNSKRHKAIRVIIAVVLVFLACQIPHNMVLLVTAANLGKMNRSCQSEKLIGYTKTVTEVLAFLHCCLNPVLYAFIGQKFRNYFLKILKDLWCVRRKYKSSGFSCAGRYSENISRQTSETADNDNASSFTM
Type: cell-based
Summary of the method: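 Ba/F3 cells transfected with human CCR6 and butyrate-primed for 24 h were suspended at 4 million/ml in human serum with compound, serially diluted from a 1 μM final top concentration. Cells migrated through a 5-μm polycarbonate membrane toward 10 nM human CCL20 for 45 min at 37 °C. Migrated cells were quantified by CyQUANT fluorescence.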

Compound | IC50
Cc1cnc(CO)c(C)c1-c1ccc(S(=O)(=O)N2CC[C@@H](Nc3ccc(C(F)(F)F)cn3)[C@@H](O)C2)cc1 [Compound 205] | 1 to 10 nM
NC(=O)c1ncc(-c2ccc(S(=O)(=O)N3CC[C@@H](Nc4ccc(C(F)(F)F)cn4)[C@@H](O)C3)cc2)s1 [Example 42, 5-(4-(((3S,4R)-3-Hydroxy-4-((5-(trifluoromethyl)pyridin-2-yl)amino)piperidin-1-yl)sulfonyl)phenyl)thiazole-2-carboxamide] | < 1 nM
O=S(=O)(c1ccc(-c2ccnc(N3CC[C@H](O)C3)c2)cc1)N1CC[C@@H](Nc2ccc(C(F)(F)F)cn2)[C@@H](O)C1 [Compound 133] | < 1 nM
CN(C)c1cncc(-c2ccc(S(=O)(=O)N3CC[C@@H](Nc4ccc(C(F)(F)F)cn4)[C@@H](O)C3)cc2)c1 [Compound 111] | < 1 nM
O=S(=O)(c1ccc(-c2ccnc(N3CCOCC3)c2)cc1)N1CC[C@@H](Nc2ccc(C(F)(F)F)cn2)[C@@H](O)C1 [Compound 146] | < 1 nM
